Structures can show the parent of a compound that is named as a salt. Where two headings read alike, the source gives them in different places.
Assays:
[1] = tested on: myosin regulatory light chain; test: Action on amount of phosphorylated myosin regulatory light chain in the cells (Test Example 1); format: cell-based, human; details: neutrophils of healthy volunteers, reaction with test compound at 25°C for 5 minutes, read-out: Inhibition of myosin regulatory light chain phosphorylation (IC50: µM)
Protocol: The neutrophils were washed with PBS(-) and resuspended in Hanks' Balanced Salt Solution (HBSS+, Gibco) to prepare a cell suspension (8 x 10^6/ml). The cell suspension was diluted to 5 x 10^6/ml, introduced into Eppendorf tubes in a volume of 0.4 ml each, then 0.1 ml each of solutions of a test compound at various concentrations were added to the suspension and allowed to react at 25°C for 5 minutes. After the reaction, 0.1 ml of trichloroacetic acid solution was added to each reaction, the reaction mixture was gently shaken and centrifuged at 12,000 rpm (4°C, 5 minutes), and the supernatant was removed. Subsequently, 3 μl of 1 M Tris solution was added to the residue, the mixture was further mixed with 50 μl of extraction buffer (8 M urea, 0.02% 2-mercaptoethanol, 0.002% bromophenol blue) and left stand at room temperature for 1 hour. Then, the reaction mixture was loaded on a spin column (0.45 μm, Millipore) to remove the insoluble solids and a sample buffer for SDS polyacrylamide gel electrophoresis (25 mM, Tris-HCl pH 6.8, 2.5% 2-mercaptoethanol, 2% sodium dodecylsulfate, 5% sucrose, 0.002% bromophenol blue as final concentrations) was added, and 10 μl of each sample was subjected to electrophoresis. […] J. Physiol., 274, […]-[…] (1998)), which specifically recognize the phosphorylated myosin regulatory light chain, and donkey anti-mouse IgG (Chemicon) conjugated with horseradish peroxidase (HRP-labeled). The band of the phosphorylated myosin regulatory light chain was detected on a film by using ECL Plus Kit (Amersham Pharmacia Biotech). This band was subjected to quantification using a densitometer. By using this value, the inhibitory ratio (%) for phosphorylation of the myosin regulatory light chain was calculated by using the following equation.

[2] = tested on: Neutrophils; test: Neutrophil migration inhibitory action, Boyden Chamber, FMLP (Test Example 5); format: cell-based, human; details: FMLP (1 µM), migration at 37°C for 30 minutes, read-out: Neutrophil migration inhibition IC50
Protocol: Neutrophils were isolated from 50 to 100 ml of peripheral blood collected from healthy donors by the method described in Test Example 1 to obtain a cell suspension (8 x 10^6/ml). Subsequently, solutions of a test compound at various concentrations were introduced into wells of a 96-well plate in a volume of 125 µl per well, the cell suspension of an equivalent volume was added to it and the plate was preincubated at room temperature for 5 minutes. During the preincubation, FMLP (1 µM, Sigma) solution was added to the lower chamber to set Boyden Chamber, the preincubated cell suspension was added to the upper chamber in a volume of 200 µl per well, and the cells were allowed to migrate at 37°C under 5% carbon dioxide for 30 minutes. The filter after the migration was collected, and the non-migrated cells adhered to the surface that faced the upper chamber were carefully wiped off. Then, the migrated cells on the back surface were stained with DifQuick dye solution (International Reagents), washed with water and dried, and then absorbance was measured at 595 nm. The inhibition ratio against migration (%) of a test compound was calculated by using the following equation: Migration inhibition ratio (%) = (1 -Absorbance of the group with addition of test compound /Absorbance of the group without addition of test compound) x 100 [formula]

[3] = Homo sapiens, Neutrophil, 5 min
[4] = Homo sapiens, Neutrophil, 0.5 h

| Molecule | IC50 [1, 3] | IC50 [2, 4] | IC50 ([1]; hydrochloride) | IC50 [1] | IC50 [2] |
| --- | --- | --- | --- | --- | --- |
| NCCCNc1cccc2cnccc12 [Example 16, N-(5-Isoquinolyl)-1,3-propylenediamine hydrochloride] | 20 to 40 µM | 10 to 40 µM |  |  |  |
| Fc1cncc2cccc(NC3CCNCC3)c12 [Example 104, 4-(4-Fluoro-5-isoquinolyl)aminopiperidine hydrochloride] | ≤ 40 µM | ≤ 40 µM | ≤ 20 µM |  |  |
| c1cc(NCC2CCCNC2)c2ccncc2c1 (stereo not drawn) [Example 22, 3-(5-Isoquinolyl)aminomethylpiperidine hydrochloride] | ≤ 40 µM |  |  |  |  |
| Nc1nccc2c(NC3CCNCC3)cccc12 [Example 142, 4-(1-Amino-5-isoquinolyl)aminopiperidine hydrochloride] | ≤ 40 µM |  | ≤ 20 µM |  |  |
| c1cc(NCC2CCNCC2)c2ccncc2c1 [Example 21, 4-(5-Isoquinolyl)aminomethylpiperidine hydrochloride] | ≤ 40 µM | 10 to 40 µM | ≤ 20 µM |  |  |
| NCCCN(CCCc1ccccc1)S(=O)(=O)c1cccc2c(O)nccc12 [Example 14, N-[(1-Hydroxy-5-isoquinolyl)sulfonyl]-N-(3-phenylpropyl)-1,3-propylenediamine hydrochloride] | 20 to 40 µM | 1 to 10 µM |  |  |  |
| 4-(4-Cyano-5-isoquinolyl)aminopiperidine hydrochloride [Example 143] |  |  |  | ≤ 40 µM |  |
| COC(=O)c1cccc(CCCN(CCCN)S(=O)(=O)c2cccc3cnccc23)c1 [Example 131, N-[(5-Isoquinolyl)sulfonyl]-N-[3-(3-methoxycarbonyl)phenylpropyl]-1,3-propylenediamine hydrochloride] |  |  | ≤ 20 µM |  | ≤ 40 µM |
| N#Cc1cncc2cccc(O[C@H]3CC[C@H](NCCO)CC3)c12 [Example 156, Trans-1-[(4-cyano-5-isoquinolyl)oxy]-4-[(2-hydroxyethyl)amino]cyclohexane hydrochloride] | ≤ 40 µM |  | ≤ 20 µM |  |  |
| NCCCN(CCCCc1ccccc1)S(=O)(=O)c1cccc2cnccc12 [Example 4, N-[(5-Isoquinolyl)sulfonyl]-N-(4-phenylbutyl)-1,3-propylenediamine hydrochloride] | 30 µM | 1 to 10 µM |  |  |  |
| COC(=O)c1ccc(CCCN(CCCN)S(=O)(=O)c2cccc3cnccc23)cc1 [Example 130, N-[(5-Isoquinolyl)sulfonyl]-N-[3-(4-methoxycarbonyl)phenylpropyl]-1,3-propylenediamine hydrochloride] |  |  | ≤ 20 µM |  |  |
| NCCCCNc1cccc2cnccc12 [Example 18, N-(5-Isoquinolyl)-1,4-butylenediamine hydrochloride] | 20 to 40 µM | 10 to 40 µM |  |  |  |
| NCc1cccc(CNc2cccc3cnccc23)c1 [Example 26, N-(5-Isoquinolyl)-1,3-xylylenediamine hydrochloride] | 20 to 40 µM | 10 to 40 µM |  |  |  |
| CCc1cncc2cccc(O[C@H]3CC[C@H](N)CC3)c12 [Example 138, Trans-4-[(4-ethyl-5-isoquinolyl)oxy]cyclohexylamine hydrochloride] | ≤ 40 µM |  | ≤ 20 µM |  |  |
| Cc1cnc(O)c2cccc(N[C@H]3CC[C@H](N)CC3)c12 [Example 160, Trans-N-(1-hydroxy-4-methyl-5-isoquinolyl)-1,4-cyclohexanediamine hydrochloride] | ≤ 40 µM | ≤ 40 µM | ≤ 20 µM |  |  |
| NCCCN(CCCc1cccc(C(=O)O)c1)S(=O)(=O)c1cccc2cnccc12 [Example 128, N-[(5-Isoquinolyl)sulfonyl]-N-[3-(3-carboxy)phenylpropyl]-1,3-propylenediamine hydrochloride] |  |  | ≤ 20 µM |  | ≤ 40 µM |
| N[C@H]1CC[C@H](Nc2cccc3cnccc23)CC1 [Example 24, Trans-N-(5-isoquinolyl)-1,4-cyclohexanediamine hydrochloride] | 1 to 20 µM | 1 to 10 µM |  |  |  |
| NC1CCCC(Nc2cccc3cnccc23)C1 (stereo not drawn) [Example 25, N-(5-Isoquinolyl)-1,3-cyclohexanediamine hydrochloride] | 20 to 40 µM | 10 to 40 µM |  |  |  |
